Measurements: patent publication US10112935B2, “Indazolyl thiadiazolamines and related compounds for inhibition of Rho-associated protein kinase and the treatment of disease” (Lycera Corporation, priority 2015, dated 2018)

Key:
[1] = biological target: GST-tagged human ROCK1 catalytic domain 1-477 (Homo sapiens (Human), UniProt Q13464); experiment: Inhibition of Rho-associated protein kinase isoform 1 (LANCE Ultra ULight-CREBtide FRET kinase assay); assay type: biochemical; details: 30 μM was the highest concentration analyzed
Sequence of GST-tagged human ROCK1 catalytic domain 1-477 (Q13464 1-477): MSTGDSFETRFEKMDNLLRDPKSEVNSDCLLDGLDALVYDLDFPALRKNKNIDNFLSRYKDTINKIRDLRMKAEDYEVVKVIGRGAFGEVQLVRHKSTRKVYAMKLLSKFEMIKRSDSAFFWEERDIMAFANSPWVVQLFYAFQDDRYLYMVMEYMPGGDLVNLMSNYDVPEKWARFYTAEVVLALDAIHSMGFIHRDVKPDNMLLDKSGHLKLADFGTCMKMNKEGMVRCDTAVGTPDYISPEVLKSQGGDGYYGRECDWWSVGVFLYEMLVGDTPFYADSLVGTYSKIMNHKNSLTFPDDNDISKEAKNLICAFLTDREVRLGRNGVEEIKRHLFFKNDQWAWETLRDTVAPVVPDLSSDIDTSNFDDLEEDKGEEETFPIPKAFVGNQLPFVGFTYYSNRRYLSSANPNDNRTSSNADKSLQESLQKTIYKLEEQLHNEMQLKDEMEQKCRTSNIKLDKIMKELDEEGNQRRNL
Method in brief: (§1)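 Baculovirus-expressed kinase phosphorylated ULight-CREBtide for 90 min at room temperature before the reaction was stopped with 10 mM EDTA. Phospho-substrate was detected by TR-FRET with 1 nM Europium-anti-phospho-CREB (Ser133) antibody after 60 min at room temperature.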

[2] = biological target: GST-tagged human ROCK2 catalytic domain 1-553 (Homo sapiens (Human), UniProt O75116); experiment: Inhibition of Rho-associated protein kinase isoform 2 (LANCE Ultra ULight-CREBtide FRET kinase assay); assay type: biochemical; details: for IC50: 30 μM was the highest concentration analyzed; for Selectivity for ROCK2 over ROCK1 (IC50 ROCK1 / IC50 ROCK2): selectivity ROCK2 vs ROCK1
Sequence of GST-tagged human ROCK2 catalytic domain 1-553 (O75116 1-553): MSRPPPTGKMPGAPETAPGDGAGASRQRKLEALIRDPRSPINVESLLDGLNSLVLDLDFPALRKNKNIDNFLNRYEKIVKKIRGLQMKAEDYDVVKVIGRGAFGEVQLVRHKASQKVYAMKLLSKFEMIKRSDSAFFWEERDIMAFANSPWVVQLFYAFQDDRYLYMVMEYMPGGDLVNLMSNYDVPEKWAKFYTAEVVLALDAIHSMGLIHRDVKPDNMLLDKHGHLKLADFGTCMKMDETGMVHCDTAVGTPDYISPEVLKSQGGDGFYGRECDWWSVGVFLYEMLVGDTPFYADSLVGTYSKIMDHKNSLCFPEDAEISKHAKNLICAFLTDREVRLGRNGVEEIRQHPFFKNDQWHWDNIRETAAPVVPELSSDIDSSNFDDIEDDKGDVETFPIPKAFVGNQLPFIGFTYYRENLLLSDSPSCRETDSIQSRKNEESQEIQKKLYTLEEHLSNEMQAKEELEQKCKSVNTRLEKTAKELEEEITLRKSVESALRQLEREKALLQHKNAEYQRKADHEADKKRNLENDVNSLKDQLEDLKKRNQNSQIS
Method in brief: as §1

Row | IC50 [1] [µM] | IC50 [2] [µM] | Selectivity for ROCK2 over ROCK1 (IC50 ROCK1 / IC50 ROCK2) [2] | Compound
1 | 1 to 15 | < 1 | >5 | CCN(CC)Cc1cc(NC(C)=O)cc(-c2nnc(Nc3ccc4[nH]ncc4c3Cl)s2)c1.O=C(O)C(F)(F)F [Example 48A]
2 | 1 to 15 | < 1 | >5 | CC(=O)Nc1cc(-c2nnc(Nc3ccc4[nH]ncc4c3Cl)s2)ccc1CN(C)C [Example 48L]
3 | 1 to 15 | < 1 | >5 | CN(C)Cc1cc(-c2ncco2)cc(-c2nnc(Nc3ccc4[nH]ncc4c3Cl)s2)c1 [Example 75P]
4 | 1 to 15 | 1 to 15 | <5 | CN1C(=O)Cc2cccc(-c3nnc(Nc4ccc5[nH]ncc5c4Cl)s3)c21 [Example 56C]
5 | > 30 | < 1 | >100 | CC(=O)Nc1cc(-c2nnc(Nc3ccc4[nH]ncc4c3Cl)s2)cc(C(F)(F)F)c1 [Example 48K]
6 | > 30 | 15 to 30 | <5 | CN(c1nnc(-c2cccc(NC(=O)Cc3ccc(C#N)cc3)c2)s1)c1ccc2[nH]ncc2c1Cl [Example 54B]
7 | > 30 | < 1 | >100 | Clc1c(Nc2nnc(-c3cccc(-c4ncco4)c3)s2)ccc2[nH]ncc12 [Example 46O]
8 | > 30 | < 1 | >100 | CC(=O)Nc1cc(-c2ncco2)cc(-c2nnc(Nc3ccc4[nH]ncc4c3Cl)s2)c1.O=C(O)C(F)(F)F [Example 46M]

Second part, the molecule before the results:

Row | Compound | IC50 [1] [µM] | IC50 [2] [µM] | Selectivity for ROCK2 over ROCK1 (IC50 ROCK1 / IC50 ROCK2) [2]
9 | CC(C)NC(=O)COc1cccc(-c2nnc(Nc3ccc4[nH]ncc4c3)s2)c1 [Example A-23] | > 30 | < 1 | >50
10 | CCn1cc(C(=O)Nc2cccc(-c3nnc(Nc4ccc5[nH]ncc5c4)s3)c2)cn1 [Example A-16] | < 1 | < 1 | >5
11 | O=C(O)C(F)(F)F.O=C(O)CS(=O)(=O)Nc1cccc(-c2nnc(Nc3ccc4[nH]ncc4c3)s2)c1 [Example 35CD] | 1 to 15 | 1 to 15 | <5
12 | CC(C)C[C@H](N)C(=O)Nc1cccc(-c2nnc(Nc3ccc4[nH]ncc4c3Cl)s2)c1 [Example 35BA] | < 1 | < 1 | >5
13 | CCS(=O)(=O)Nc1cccc(-c2nnc(Nc3ccc4[nH]ncc4c3)s2)c1 [Example A-8] | > 30 | 1 to 15 | >5
14 | O=C(Nc1cccc(-c2nnc(Nc3ccc4[nH]ncc4c3Cl)s2)c1)C1CNC1 [Example 35AD] | 1 to 15 | < 1 | >5
15 | O=C(Nc1cccc(-c2nnc(Nc3ccc4[nH]ncc4c3)s2)c1)c1cn[nH]c1 [Example A-46] | > 30 | < 1 | >100
16 | CC(=O)Nc1cc(CSC(C)=O)cc(-c2nnc(Nc3ccc4[nH]ncc4c3Cl)s2)c1 [Example 47, (S)-(3-Acetamido-5-(5-((4-chloro-1H-indazol-5-yl)amino)-1,3,4-thiadiazol-2-yl)benzyl)ethanethioate] | > 30 | < 1 | >100
17 | O=C(Nc1cc(-c2nnc(Nc3ccc4[nH]ncc4c3Cl)s2)ccn1)c1ccc(F)cc1.O=C(O)C(F)(F)F [Example 35B] | < 1 | < 1 | <5
18 | O=C(O)c1cccc(-c2nnc(Nc3ccc4[nH]ncc4c3)s2)c1 [Example 35CL] | 15 to 30 | 1 to 15 | 
19 | CC(C)NC(=O)COc1cccc(-c2nnc(Nc3ccc4[nH]ncc4c3)s2)c1 [Example 35CP] | 15 to 30 | < 1 | >5
